Where “and” joins values, the source holds several entries; their conditions need not be identical. Identical values can stand only once.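 96-well plates; 48 h exposure; 5 concentrations. Endpoints by linear interpolation between flanking doses. Not reached: highest tested concentration assigned. Here, GI50 denotes the concentration required for 50% inhibition of growth.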 Calls of active or inactive are those of the source. No stated cut-off is given here; in the data, active = GI50 up to about 1.1 µM and inactive = higher.
What was measured:
Test in all cases: growth of human tumour cells (NCI), 48 h
786-0 = system: 786-0
A549 = system: A549
ACHN = system: ACHN
BT-549 = system: BT-549
CAKI-1 = system: CAKI-1
DU-145 = system: DU-145
HOP-92 = system: HOP-92
K562 = system: K562
MDA-MB-231 = system: MDA-MB-231
MDA-MB-435 = system: MDA-MB-435
MDA-N = system: MDA-N
NCI-H460 = system: NCI-H460
NCI-H522 = system: NCI-H522
NCI/ADR-RES = system: NCI/ADR-RES
OVCAR-3 = system: OVCAR-3
RPMI-8226 = system: RPMI-8226
RXF 393 = system: RXF 393
SK-MEL-5 = system: SK-MEL-5
SNB-75 = system: SNB-75
UACC-257 = system: UACC-257

Row | Compound | GI50 (786-0) | GI50 (A549) | GI50 (ACHN) | GI50 (BT-549) | GI50 (CAKI-1) | GI50 (DU-145) | GI50 (HOP-92) | GI50 (K562) | GI50 (MDA-MB-231) | GI50 (MDA-MB-435) | GI50 (MDA-N) | GI50 (NCI-H460) | GI50 (NCI-H522) | GI50 (NCI/ADR-RES) | GI50 (OVCAR-3) | GI50 (RPMI-8226) | GI50 (RXF 393) | GI50 (SK-MEL-5) | GI50 (SNB-75) | GI50 (UACC-257)
1 | Cc1cccc2c1CC(Cc1ccccc1C(=O)O)C2=O (stereo not given) | > 100 µM (inactive) | > 100 µM (inactive) | > 100 µM (inactive) | > 100 µM (inactive) | > 100 µM (inactive) | > 100 µM (inactive) | > 100 µM (inactive) | > 100 µM (inactive) | > 100 µM (inactive) | > 100 µM (inactive) | > 100 µM (inactive) | > 100 µM (inactive) | > 100 µM (inactive) | > 100 µM (inactive) | > 100 µM (inactive) | > 100 µM (inactive) | > 100 µM (inactive) | > 100 µM (inactive) | > 100 µM (inactive) | > 100 µM (inactive)
2 | Cc1ccc(/C=C2/N/C(=N\N=C/C(O)C(O)C(O)CO)NC2=O)cc1 (stereo not given) | > 100 µM (inactive) | > 100 µM (inactive) | > 100 µM (inactive) | > 100 µM (inactive) | > 100 µM (inactive) | > 100 µM (inactive) | > 100 µM (inactive) | 55.5 µM (inactive) and 47.8 µM (inactive) | > 100 µM (inactive) | > 100 µM (inactive) | > 100 µM (inactive) | > 100 µM (inactive) | 71.6 µM (inactive) | > 100 µM (inactive) | 52.4 µM (inactive) and 69.8 µM (inactive) | > 100 µM (inactive) | > 100 µM (inactive) | > 100 µM (inactive) | > 100 µM (inactive) | > 100 µM (inactive)
3 | COc1ccc(/N=N/C(=N\c2ccc(Cl)cc2)c2ccc(N(CCC#N)CCC#N)cc2)cc1 | 83.8 µM (inactive) | 47.6 µM (inactive) | 19.9 µM (inactive) | 12.6 µM (inactive) | 27.2 µM (inactive) | 20 µM (inactive) | 33.2 µM (inactive) | 26.4 µM (inactive) | 14.8 µM (inactive) | 7.23 µM (inactive) | 37.4 µM (inactive) | 10.1 µM (inactive) | 17.4 µM (inactive) | 10.5 µM (inactive) | 23.9 µM (inactive) | 34.5 µM (inactive) | 12.7 µM (inactive) | 0.755 µM (active) | 39 µM (inactive) | 11.4 µM (inactive)
4 | Cn1c2ccccc2c(=NNc2ccc(C(=O)O)cc2)c2ccccc21 | 19.8 µM (inactive) | 14.4 µM (inactive) | 15.3 µM (inactive) | 21.6 µM (inactive) | 21.6 µM (inactive) | 19.5 µM (inactive) | 20.5 µM (inactive) | 6.79 µM (inactive) | 19.8 µM (inactive) | 19 µM (inactive) | 17.7 µM (inactive) | 16.1 µM (inactive) | 10.7 µM (inactive) | 23.9 µM (inactive) | 16.5 µM (inactive) | 12.9 µM (inactive) | 15.4 µM (inactive) | 17.6 µM (inactive) | 19.8 µM (inactive) | 30.1 µM (inactive)
5 | C=CCN(c1cc(OC)c2[nH]c(C(=O)OCC)c(C)c2c1[N+](=O)[O-])S(C)(=O)=O | 19 µM (inactive) | 22 µM (inactive) | 26.1 µM (inactive) | 22.1 µM (inactive) | 34 µM (inactive) | 24.7 µM (inactive) | 18.6 µM (inactive) | 15.1 µM (inactive) | 11 µM (inactive) | 24.7 µM (inactive) | 18.1 µM (inactive) | 30.3 µM (inactive) | 17.7 µM (inactive) | 23.6 µM (inactive) | 23.8 µM (inactive) | 14.6 µM (inactive) | 7.23 µM (inactive) | 16.1 µM (inactive) | 15.2 µM (inactive) | 39.9 µM (inactive)
6 | O=C1C2C(c3ccccc3)NC(c3ccccc3)C1C(c1ccccc1)NC2c1ccccc1 (stereo not given) | > 100 µM (inactive) | > 100 µM (inactive) | > 100 µM (inactive) | > 100 µM (inactive) | > 100 µM (inactive) | > 100 µM (inactive) | > 100 µM (inactive) | > 100 µM (inactive) | > 100 µM (inactive) | > 100 µM (inactive) | > 100 µM (inactive) | > 100 µM (inactive) | > 100 µM (inactive) | > 100 µM (inactive) | > 100 µM (inactive) | > 100 µM (inactive) | > 100 µM (inactive) | > 100 µM (inactive) | > 100 µM (inactive) | > 100 µM (inactive)
7 | O=C(NC1(c2cc3ccccc3s2)CCCCC1)C1CCC1 | > 100 µM (inactive) | > 100 µM (inactive) | > 100 µM (inactive) | > 100 µM (inactive) | > 100 µM (inactive) | > 100 µM (inactive) | > 100 µM (inactive) | > 100 µM (inactive) | 69.5 µM (inactive) | > 100 µM (inactive) | > 100 µM (inactive) | > 100 µM (inactive) | > 100 µM (inactive) | > 100 µM (inactive) | > 100 µM (inactive) | > 100 µM (inactive) | > 100 µM (inactive) | > 100 µM (inactive) | 46.7 µM (inactive) | > 100 µM (inactive)
8 | O=c1cc(-c2ccccc2)[nH]c2ccc(N3CCCC3)cc12 | < 0.0114 µM (active) | 0.0555 µM (active) | 0.0222 µM (active) | > 100 µM (inactive) | < 0.0175 µM (active) | 0.0459 µM (active) | 0.037 µM (active) | < 0.01 µM (active) | 0.103 µM (active) | < 0.01 µM (active) | < 0.01 µM (active) | 0.0275 µM (active) | < 0.01 µM (active) | 0.0159 µM (active) | 0.0272 µM (active) | 0.0366 µM (active) | 0.0196 µM (active) | 0.0366 µM (active) | 40.6 µM (inactive) | 30.4 µM (inactive)
9 | Cc1nn(-c2ccccn2)c2c1C(SC#N)=C(C=O)CC2 | 12.4 µM (inactive) | 14.8 µM (inactive) | 16.3 µM (inactive) | 18.5 µM (inactive) | 5.64 µM (inactive) | 14.9 µM (inactive) | 16.5 µM (inactive) | 8.07 µM (inactive) | 18 µM (inactive) | 18.1 µM (inactive) | 17.7 µM (inactive) | 15.9 µM (inactive) | 19.5 µM (inactive) | 20.1 µM (inactive) | 12.3 µM (inactive) | 13.3 µM (inactive) | 5.16 µM (inactive) | 15 µM (inactive) | 15.3 µM (inactive) | 5.12 µM (inactive)
10 | C/C(=N\NC(=S)N1CCCCCC1)c1ccccn1 | 0.0352 µM (active) | 0.0271 µM (active) | 0.00405 µM (active) | 0.17 µM (active) | 0.0162 µM (active) | 0.986 µM (active) | 0.01 µM (active) | 0.00288 µM (active) | 0.0249 µM (active) | 0.601 µM (active) | 0.42 µM (active) | 0.0164 µM (active) | 0.0624 µM (active) | 0.01 µM (active) | < 0.001 µM (active) | 0.00405 µM (active) | 0.553 µM (active) | 0.00805 µM (active) | 0.0692 µM (active) | 0.0128 µM (active)
11 | C=C1C(=O)O[C@H]2[C@H]1[C@H](OC(=O)/C(C)=C\C)C[C@]1(CO1)[C@@H]1[C@H](OC(C)=O)C=C(C)[C@]21O [EUPAROTIN ACETATE] | 7.46 µM (inactive) | 69.2 µM (inactive) | 10.6 µM (inactive) | 8.13 µM (inactive) | 17.3 µM (inactive) | 15.4 µM (inactive) | 15 µM (inactive) | 0.383 µM (active) | 16.5 µM (inactive) | 17.9 µM (inactive) | 13.2 µM (inactive) | 28 µM (inactive) | 3.31 µM (inactive) | 21.5 µM (inactive) | 14.7 µM (inactive) | 4.82 µM (inactive) | 10.8 µM (inactive) | 17 µM (inactive) | 67.5 µM (inactive) | 17.7 µM (inactive)
12 | C[C@]12CC[C@H]3[C@@H](CC[C@]4(O)C[C@@H](O)CC[C@]34C=O)[C@@]1(O)CC[C@@H]2C1=CC(=O)OC1 [STROPHANTHIDIN] | 0.321 µM (active) | 0.159 µM (active) | 0.142 µM (active) | 0.355 µM (active) | 0.19 µM (active) | 0.284 µM (active) | 1.25 µM (inactive) | 0.605 µM (active) | 2.65 µM (inactive) | 0.522 µM (active) | 0.372 µM (active) | 0.195 µM (active) | 0.0942 µM (active) | 0.403 µM (active) | 0.421 µM (active) | 0.506 µM (active) | 0.274 µM (active) | 0.288 µM (active) | 1.14 µM (inactive) | 0.766 µM (active)

Source: ChEMBL document CHEMBL1201862, “PubChem BioAssay data set” (2004)
